Data on one molecule can be found in patent publication US20230285516A1 (priority 2020, published 2023).

For one assay, the system named is Treg (CD4+/FOXP3+) cells. Put plainly: FACS of spleen Foxp3+ regulatory T cells in CIA models. Type of assay: in vivo, mice. The settings on record: early and long-standing arthritis, first and second sacrifice, vs placebo. Here is the method:
(§1) Early Arthritis Model. Fifty mice with the same characteristics were immunized at the base of the tail with 100 μg of chicken type II collagen emulsified in complete Freund's adjuvant. The boost was applied on day 21 at the base of the tail with 100 μg of type II collagen emulsified with Freund's incomplete adjuvant. On the same boosting day, the treatments (a-d) were applied every week for six weeks. Three animals were euthanized in the sixth week and three in the thirteenth week. The spleen, lymph nodes, joint tissue, liver, lungs, kidneys and heart were obtained in order to assess the inflammatory infiltrate, the predominant cell populations and the expression of pro- and anti-inflammatory cytokines.
(§2) Established Arthritis Model. Arthritis was induced as in the previous model in 50 mice and the treatments were applied intramuscularly, after 2 weeks of the boost, every week for 6 weeks. Three animals were euthanized in the eighth week and three in the fifteenth week. The spleen, lymph nodes, joint tissue, liver, lungs, kidneys and heart were obtained in order to assess the inflammatory infiltrate, the predominant cell populations and the expression of pro- and anti-inflammatory cytokines.
Cytometric evaluation. Using FACS, the percentage of populations of Th1 ([…]), Th2 (CD4^+/IL-4^+), Treg (CD4^+/FOXP3^+) Th17 (CD4^+/IL-17^+) and dendritic (CD4−/CD11c^+) cells in spleen cells.
FIG. 10. Effect of type I polymerized collagen in the early (preventive) and long-standing (late or palliative) arthritis model on the percentage of spleen CD4+ T cell subpopulations. (A) Spleen cells obtained ex vivo in the early arthritis model during the first sacrifice. (B) Spleen cells obtained ex vivo in the early arthritis model during the second sacrifice. (C) Spleen cells obtained ex vivo in the long-standing arthritis model during the first sacrifice. […] The intracellular production of IL-17A, IL-4, IFN-γ and Foxp3 by CD4+ T cells was detected by flow cytometry. The results are representative of 6 mice analyzed in each group. […]

A further assay relates to mice with CIA. Kind of assay: Histopathological analysis of hind legs, collagen-induced arthritis (CIA) models. Type of assay: in vivo. The settings on record: H&E and PAS, intramuscular weekly for 6 weeks. Here is the method:
as §1, §2
Histological evaluation. The inflammatory infiltrate and tissue architecture were evaluated by H&E and Masson's trichrome staining and the content of proteoglycans, with the PAS technique. […]

As for `CN(Cc1cnc2nc(N)nc(N)c2n1)c1ccc(C(=O)N[C@@H](CCC(=O)O)C(=O)O)cc1` [MTX, methotrexate, reference compound], in the assay with Treg (CD4+/FOXP3+) cells, the “Foxp3+ regulatory T cells” value is listed as “significant reduction”. In addition, the “histopathology of joint tissue (inflammation, tissue architecture)” value in the assay with mice with CIA was “induced some tissue abnormalities”.
